Legend:
NCI-H929 = experiment: Cytotoxicity of steroid treated AB-101 cells against NCI-H929; assay type: cell-based; details: 48 hours; particularly when combined with 500 IU/mL of IL-2; 5:1 E:T
[1] = system: K562, Daudi, RPMI-8226, and NCI-H929; experiment: Impact of steroids on AB-101+daratumumab ADCC; details: 48 hours steroid treatment; 5:1 E:T; with daratumumab
K562 = experiment: Cytotoxicity of steroid treated AB-101 cells against K562; assay type: cell-based; details: 5:1 E:T
Daudi = experiment: Cytotoxicity of steroid treated AB-101 cells against Daudi; assay type: cell-based; details: 48 hours; particularly when combined with 500 IU/mL of IL-2; 5:1 E:T
[2] = system: Burkitt's lymphoma cell line Daudi; experiment: Complement fixation assay (CDC), assay control tumor line; assay type: cell-based; details: human complement serum; lowest concentration tested
Text: Burkitt's lymphoma cell line Daudi was included as an assay control.

[3] = system: CD38+ multiple myeloma cell line MM.1S; experiment: Daratumumab titration, ADCC by AB-101 cells against MM.1S; assay type: cell-based; details: AB-101 at 5:1 E:T, 4 hours
Method: (§1) After 4 hours on co-culture, the samples were analyzed by flow cytometry.

CD38− cell line K562 = experiment: Daratumumab titration, cytotoxicity of AB-101 cells against K562; assay type: cell-based; details: AB-101 at 5:1 E:T, 4 hours
Method: as §1

| Molecule | basal cytotoxicity of steroid treated AB-101 cells (NCI-H929) | ADCC potential of steroid treated AB-101 cells [1] | basal cytotoxicity of steroid treated AB-101 cells (K562; 0.1, 1, 10 μM for 48 hours, all concentrations tested, with the exception of one cell lot) | cytotoxicity of steroid treated AB-101 cells with 500 IU/ml of IL-2 (K562; 500 IU/ml IL-2 during steroid treatment) | basal cytotoxicity of steroid treated AB-101 cells (Daudi) | concentration of daratumumab at which lysis reached saturation [2] [µg/mL] | ADCC compared to IgG1 control antibodies [3] | cytotoxicity of AB-101 cells, daratumumab vs IgG control (CD38− cell line K562) |
| --- | --- | --- | --- | --- | --- | --- | --- | --- |
| C[C@@H]1C[C@H]2[C@@H]3CCC4=CC(=O)C=C[C@]4(C)[C@@]3(F)[C@@H](O)C[C@]2(C)[C@@]1(O)C(=O)CO [Dexamethasone, (8S,9R,10S,11S,13S,14S,16R,17R)-9-fluoro-11,17-dihydroxy-17-(2-hydroxyacetyl)-10,13,16-trimethyl-6,7,8,11,12,14,15,16-octahydrocyclopenta[a]phenanthren-3-one] | enhanced | did not abolish | reduced | restored cytotoxicity | enhanced |  |  |  |
| daratumumab: mAb that targets CD38, approved for multiple myeloma |  |  |  |  |  | ≤ 0.41 | elicited ADCC | no change in cytotoxicity |
